As usually defined, the MIC is the least concentration at which growth counts as inhibited. The term Vd denotes the apparent volume that relates the amount in the body to the concentration in plasma or blood. For orientation: AUC(0-inf) means the area under the concentration-time curve extrapolated to infinity. The AUC(0-t) is exposure summed from dosing to a finite time, without extrapolation to infinity. A lower AUC(0-t) goes with less exposure. For orientation: Cmax means the peak of the concentration-time curve. As a reminder, the Tmax is the time from dosing to the highest level. The half-life is the time in which the quantity being followed falls by half. What is called clearance is a measure of how efficiently the substance is removed, as volume per time. What is called MRT is a mean duration of stay, worked out from the concentration-time curve.

From patent US20240132518A1, “CEPHALOSPORIN ANTIBACTERIAL COMPOUND AND PREPARATION METHOD THEREFOR” (priority 2021, published 2024) come the findings set out here.

In brackets after ≈: the same amount, converted by molar mass. Where two headings read alike, the source gives them in different places.

The test system of series [1] is Carbapenem-resistant Acinetobacter baumannii (CRAB). As to the kind of experiment: Antibacterial MIC assay (ID-CAMHB), carbapenem-resistant Acinetobacter baumannii. The class given is cell-based. As for the experimental part: (§1) 1. The test compounds were dissolved in sterile normal saline, vortexed for uniformly mixing, and diluted in a 2-fold dilution with the sterile normal saline (11 concentration points in total). The test concentration range was 32-0.031 μg/mL, and two duplicate wells were set for each concentration. Additional wells without drug dosing were set as growth controls.
(§2) 2. 4 μL of the diluent was added to 196 μL of the bacterial suspension in a 96-well plate (the bacterial count in the bacterial suspension was 2-8×10^5 colony forming units/mL).
(§3) The minimum inhibitory concentration (MIC) assay was performed with reference to the Clinical and Laboratory Standards Institute (CLSI) guidelines.

Series [2] relates to Carbapenem-resistant Enterobacteriaceae (CRE, Klebsiella pneumoniae). As to the kind of experiment: Antibacterial MIC assay (ID-CAMHB), carbapenem-resistant Enterobacteriaceae. The class given is cell-based. As for the experimental part:
as §1, §2, §3

The nature of series [3]: Pharmacokinetic study in cynomolgus monkeys. The class given is in vivo. Conditions: cynomolgus monkey, 10 mg/kg single intravenous infusion, plasma, individual animals. As for the experimental part:
An appropriate amount of a test compound was weighed precisely and added to a container, and 0.9% sodium chloride injection and 0.2 M NaOH solution were added thereto in an ice bath until the test compound was completely dissolved, so that a sample solution at a concentration of 2 mg/mL was obtained followed by storage at 2-8° C. for later use.
• Species and strain: cynomolgus monkey • Animal grade: general grade • Animal source: Guangxi Xiongsen Primate Experimental Animal Breeding Development Co., Ltd. • Number of the using of laboratory animal: SYXK (Su) 2019-0012
6 cynomolgus monkeys (half male and half female) were selected and randomly divided into 3 groups with 1 animal/sex in each group. The cynomolgus monkeys were administered with the test sample at a dose of 10 mg/kg by the single intravenous infusion. Blood samples were collected from each group of animals at the following time points: before administration, and 5 min, 15 min, 0.5 h, 1 h, 2 h, 4 h, 6 h, and 8 h after administration. In the test, the concentration of each test compound in the plasma of the cynomolgus monkey was detected by the LC-MS/MS method, and the lower limits of quantification of the analysis methods for the plasma samples were all 1 μg/mL. The plasma concentration data were analyzed by the non-compartmental analysis (NCA) of the analysis software for pharmacokinetic data, WinNonlin, pharmacokinetic parameters were calculated, and pharmacokinetic characteristics of the test compounds in cynomolgus monkeys after administration were investigated, with the results shown in the following table.

The nature of series [4]: Pharmacokinetic study in ICR mice. Conditions: 100 mg/kg subcutaneous injection, plasma. The class given is in vivo. As for the experimental part:
The formulation for administration was prepared on ice. A proper amount of the test compound was precisely weighed out, and a 90% volume of normal saline was slowly added. The mixture was ultrasonically stirred in an ice-water bath until no large pieces existed. After the mixture was well mixed, a 1 M NaOH solution was added in small portions using a pipette.
• Species and strain: ICR mice • Animal grade: SPF • Animal source: Medicilon: 999M-018
Administration by subcutaneous injection: 3 mice/sex/time point; blood samples were collected at 9 time points: 0.083 h, 0.25 h, 0.5 h, 1 h, 2 h, 4 h, 6 h, 8 h and 24 h after administration. The collected blood samples were placed in EDTA-K2 anticoagulation blood collection tubes. The collected whole blood was placed on ice and centrifuged at 6800 g at 2-8° C. for 6 min to separate plasma within 1 h. After the centrifugation, the plasma was transferred to a centrifuge tube to which a plasma stabilizer had been added in advance (plasma:concentrated phosphoric acid=100:0.2; for example, 1 μL of 10% concentrated phosphoric acid was added to 50 μL of plasma). All the animals were subjected to careful clinical observation before administration and at each of the blood collection time points after administration, and the adverse reaction symptoms in the animals were recorded.

The subject of series [5] is Carbapenem-resistant Pseudomonas aeruginosa (CRPA). As to the kind of experiment: Antibacterial MIC assay (ID-CAMHB), carbapenem-resistant Pseudomonas aeruginosa. The class given is cell-based. As for the experimental part: as §1, §2, §3
The subject of series [6] is Control strain (Escherichia coli) ATCC 25922. Nature of the series: Antibacterial MIC assay (ID-CAMHB), control strain Escherichia coli. The format is cell-based. As for the experimental part:
as §1, §2, §3

For series [7], the system named is Control strain (Pseudomonas aeruginosa) ATCC 27853. Nature of the series: Antibacterial MIC assay (ID-CAMHB), control strain Pseudomonas aeruginosa. Conditions: ATCC27853. The class given is cell-based. As for the experimental part:
as §1, §2, §3

Setting [8] is: strain FDA-CDC AR-BANK#0063, AMR gene OXA-23, OXA-65, OXA-24, sul2, read-out: MIC.
Setting [9] is: strain FDA-CDC AR-BANK#0453, AMR gene KPC-3, OmpK35, oqxA, oqxB, SHV-11, TEM-1B.
Setting [10] is: strain FDA-CDC AR-BANK#0052, AMR gene OXA-58, OXA-100, sul2.
The mark [11] stands for this setting: strain FDA-CDC AR-BANK#0070, AMR gene OXA-58, OXA-100, sul2.
Where [12] appears, read: strain FDA-CDC AR-BANK#0361, AMR gene TEM-1, SHV-12, KPC-2.
The mark [13] stands for this setting: strain FDA-CDC AR-BANK#0362, AMR gene TEM-1, SHV-11, KPC-2.
The mark [14] stands for this setting: strain FDA-CDC AR-BANK#0363, AMR gene TEM-1, SHV-12, KPC-2.
The mark [15] stands for this setting: strain FDA-CDC AR-BANK#0438, AMR gene aph(3′)-Ia, dfrA12, KPC-3, OmpK35, oqxA, oqxB, SHV-11.
[16] abbreviates: strain FDA-CDC AR-BANK#0439, AMR gene aac(6′)-Il, aadA1b, BCR1, IMP-18, OXA-50.
[17] abbreviates: strain FDA-CDC AR-BANK#0457, AMR gene aadA6, VIM-2.
[18] abbreviates: both sexes, cynomolgus, iv, 10 mg/kg.

Take `CC(C)(O/N=C(\C(=O)N[C@@H]1C(=O)N2C(C(=O)[O-])=C(C[N+]3(CCNC(=O)c4ccc(O)c(O)c4Cl)CCCC3)CS[C@H]12)c1csc(N)n1)C(=O)O` [Cefiderocol, reference compound]: in series [1] (setting [8]), the MIC came out at 4 µg/mL (≈ 5.32 µM). The minimum inhibitory concentration (MIC) in series [2] (setting [9]) worked out at 1 µg/mL (≈ 1.33 µM). In series [3] (10 mg/kg), this molecule gave a Vd of 0.37963 L/kg. In series [4], this molecule yielded an AUMC0-inf of 150.7 h · h · ug · mL^−1, an AUMC0-t of 150.3 h · h · ug · mL^−1, a Kel of 1.45 h⁻¹ and an MRTPO of 34.6 min. In series [4] (both sexes, mouse, sc), the AUC(0-inf) was found to be 261000 ng·h/mL, the AUC(0-t) was 261000 ng·h/mL, the concentration peaked (Cmax) at 363000 ng/mL and the Tmax stood at 15 min. Also, the half-life in series [4] (both sexes, mouse, sc) was 28.6 min.

On to `C[C@H](CN(CCCNC(=O)c1ccc(O)c(O)c1Cl)C(=O)c1ccc(O)c(O)c1Cl)[N+]1(CC2=C(C(=O)[O-])N3C(=O)[C@@H](NC(=O)/C(=N\OC(C)(C)C(=O)O)c4csc(N)n4)[C@H]3SC2)CCCC1` [Compound 2], for which the MIC is 0.5 µg/mL (≈ 0.503 µM) in series [1] (strain FDA-CDC AR-BANK#0036, AMR gene strB, OXA-65, OXA-24, strA, sul2); 0.125 µg/mL (≈ 0.126 µM) in series [1] (setting [10]); 4 µg/mL (≈ 4.02 µM) in series [1] (strain FDA-CDC AR-BANK#0063, AMR gene OXA-23, OXA-65, OXA-24, sul2); 0.25 µg/mL (≈ 0.252 µM) in series [1] (setting [11]); 1 µg/mL (≈ 1.01 µM) in series [1] (strain FDA-CDC AR-BANK#0101, AMR gene strB, OXA-65, OXA-24, strA, sul2); 1 µg/mL (≈ 1.01 µM) in series [2] (setting [12]). For the same molecule, the MIC in series [2] (setting [13]) was 0.25 µg/mL (≈ 0.252 µM); in series [2] (setting [14]), 0.5 µg/mL (≈ 0.503 µM); in series [2] (setting [15]), 1 µg/mL (≈ 1.01 µM); in series [2] (setting [9]) it was 1 µg/mL (≈ 1.01 µM); in series [5] (setting [16]), 0.5 µg/mL (≈ 0.503 µM); in series [5] (strain FDA-CDC AR-BANK#0441, AMR gene KPC-2), 8 µg/mL (≈ 8.05 µM). The MIC in series [5] (strain FDA-CDC AR-BANK#0444, AMR gene aac(6′)-Il, dfrB5, OXA-4, tet(G), VIM-2) amounted to 4 µg/mL (≈ 4.02 µM); in series [5] (setting [17]), 0.25 µg/mL (≈ 0.252 µM); in series [6] (ATCC25922), 0.125 µg/mL (≈ 0.126 µM); in series [7] it was 0.0625 µg/mL (≈ 0.0629 µM).

On to `CC(C)(O/N=C(\C(=O)N[C@@H]1C(=O)N2C(C(=O)[O-])=C(C[N+]3(CCN(CCCNC(=O)c4ccc(O)c(O)c4Cl)C(=O)c4ccc(O)c(O)c4Cl)CCCC3)CS[C@H]12)c1csc(N)n1)C(=O)O` [Compound 1], for which the MIC in series [1] (strain FDA-CDC AR-BANK#0036, AMR gene strB, OXA-65, OXA-24, strA, sul2, read-out: MIC) turned out to be 0.25 µg/mL (≈ 0.255 µM); in series [1] (setting [10]), 0.125 µg/mL (≈ 0.128 µM); in series [1] (setting [8]) it was 32 µg/mL (≈ 32.7 µM); in series [1] (setting [11]), 0.125 µg/mL (≈ 0.128 µM); in series [1] (strain FDA-CDC AR-BANK#0101, AMR gene strB, OXA-65, OXA-24, strA, sul2, read-out: MIC), 1 µg/mL (≈ 1.02 µM); in series [2] (setting [12]), 0.5 µg/mL (≈ 0.51 µM). The MIC in series [2] (setting [13]) is 0.25 µg/mL (≈ 0.255 µM); in series [2] (setting [14]), 0.125 µg/mL (≈ 0.128 µM); in series [2] (setting [15]) it was 0.5 µg/mL (≈ 0.51 µM); in series [2] (setting [9]), 1 µg/mL (≈ 1.02 µM); in series [5] (setting [16]) it was 0.125 µg/mL (≈ 0.128 µM); in series [5] (strain FDA-CDC AR-BANK#0441, AMR gene KPC-2, read-out: MIC), 2 µg/mL (≈ 2.04 µM). Further, the MIC is 2 µg/mL (≈ 2.04 µM) in series [5] (strain FDA-CDC AR-BANK#0444, AMR gene aac(6′)-Il, dfrB5, OXA-4, tet(G), VIM-2, read-out: MIC); 0.125 µg/mL (≈ 0.128 µM) in series [5] (setting [17]); 0.0625 µg/mL (≈ 0.0638 µM) in series [6] (ATCC25922, ID-CAMHB, control strain ATCC 25922, read-out: MIC); 0.125 µg/mL (≈ 0.128 µM) in series [7]. This molecule also gave an AUC(0-inf) in series [3] (setting [18]) of 32900 ng·h/mL. In addition, in series [3] (setting [18]), the AUC(0-t) came to 29300 ng·h/mL. In series [3] (setting [18]), the clearance was 5.06 mL/min/kg. The molecule also gave a half-life in series [3] (setting [18]) of 37.2 min. Moreover, the Cmax was found to be 35500 ng/mL in series [3] (both sexes, cynomolgus, iv, 10 mg/kg, read-out: Cmax) and 30640 ng/mL in series [3] (10 mg/kg). The MRT worked out at 38.4 min in series [3] (both sexes, cynomolgus, iv, 10 mg/kg, read-out: MRT) and 37.2 min in series [3] (10 mg/kg). Besides, the Vd in series [3] (both sexes, cynomolgus, iv, 10 mg/kg, read-out: Vd) was 0.27 L/kg; in series [3] (10 mg/kg), 0.31334 L/kg. Further, the Tmax in series [3] (both sexes) was found to be 4.8 min. In series [3] (10 mg/kg), this molecule gave an AUC last of 23440 ng·h/mL. The molecule further returned an AUCinf in series [3] (10 mg/kg) of 25640 ng·h/mL. For the same molecule, in series [3] (10 mg/kg), the CL worked out at 6.5002 mL/min/kg. This molecule gave a t1/2 in series [3] (10 mg/kg) of 33.6 min.
